Experimental data as given in patent US20120094007A1, “METHOD FOR THE IMMOBILIZATION OF CATIONIC ACTIVE INGREDIENTS ON SURFACES” (BASF SE, priority 2010, published 2012).
Where no end group is shown, it is not given here.

How the values were obtained:
Escherichia coli = test: static biofilm assay on antimicrobially finished silicone surfaces (cfu/cm^2); assay type: cell-based; conditions: silicone surface, after intensive washing
Protocol: (§1) The effect of the antimicrobial finishing of the investigated surfaces was determined by means of a […] biofilm assay. For this, the surfaces to be tested were cut into round disks which fit into the holes of 24-well microtiter plates. In order to prevent the surfaces from slipping during the assay, the surfaces were immobilized on the bottom of the microtiter plates with the help of glass joint grease. The formation of biofilms was carried out starting from a preculture. For this, 20 ml of the standard commercial TSBY medium (Difco Laboratories, MI, USA) were inoculated with the help of a steady-state overnight culture of Staphylococcus epidermidis DSM1798, Escherichia coli DSM 5698, Proteus mirabilis DSM 4479 or Escherichia coli BL21 (DE3) with an optical density of 0.1. The preculture was incubated for 2 to 4 hours with agitation (at 200 rpm) and 37° C. until an optical density of from 2 to 3 was reached. In order to start the biofilm assay, the preculture was diluted to an optical density of 0.0004 in 5% TSBY in saline (0.9% NaCl) (ca. 10^5 cfu/ml). 1 ml of this was placed onto the surfaces in the 24-well plate and then incubated at 37° C. with gentle vibration at 50 rpm (revolutions per minute), so that a biofilm could form on the surface. The biofilm on the surfaces was analyzed after one hour (1 h) and after 24 hours (24 h) (and optionally 5 hours). For this, the planktonic cells were removed. The surfaces were then removed from the microtiter plate and briefly washed in sodium chloride solution, saline (0.9% NaCl). The adherent cells in the biofilm were then detached from the surface by means of an ultrasound treatment. For this purpose, the surfaces were transferred to a Falcon tube (50 ml volume) with 2 ml of saline and subjected to ultrasound for five minutes in an ultrasound water bath. The resulting bacterial suspension was diluted and plated out on TSBY agar plates. After 18 hours at 37, the resulting colonies were counted and back-calculated to the number of cells on the surface.

[1] = test system: Staphylococcus epidermidis DSM1798; test: as above; assay type: cell-based; conditions: silicone surface, conjugates adsorbed alone from 10 mg/ml (P18 equivalents) in PBS; after washing
Protocol: as §1

For “PEI-P18 conjugates: polyethyleneimine (25 KDa) activated with SMCC and reacted with P18cys (KWKLFKKIPKFLHLAKKFC; SEQ ID NO: 27) (also: conjugated to polyethyleneimine (25 kDa) via SMCC)”, the “biofilm formation by E. coli” value (Escherichia coli; conjugates adsorbed alone from 10 mg/ml (P18 equivalents) in PBS) was “not retained on the surface so strongly that after intensive washing enough active ingredient is present to prevent biofilm formation”, the “biofilm formation by E. coli” value (Escherichia coli; two-step method: hydrophobin A coating (0.5 mg/ml), then conjugates 10 mg/ml (P18 equivalents) in PBS) was “effective even after intensive washing” and the “formation of a biofilm due to S. epidermidis” value [1] was “able to prevent the formation of a biofilm”.
